# Data as given in the supplement of paper PMC5579334.
# Legend:
# ST8814 [1] = assay: relative IC50 (inflection point of fitted dose-response curve, CellTiter-Glo viability, 72 h; top asymptote may be below 50% inhibition); higher = less potent
# Method in brief: (§1)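 Viability was scored by CellTiter-Glo ATP luminescence, scaled from vehicle to positive-control wells, with duplicates averaged where present. The cells, MPNST lines and primary human Schwann cells at 750–1000 per well, sat 72 h at 37 °C, 5% CO2, in 384-well plates preprinted with each compound at five concentrations in 10-fold steps. Four-parameter logistic fits were run on the data. These fits give drug sensitivity score and relative IC50 censored at the top concentration, and percent inhibition is reported at the top concentration.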
# HS-PSS [2] = assay: as above
# Method in brief: as §1
# ST8814 [3] = assay: relative IC50 (inflection point of fitted dose-response curve, CellTox-Green cytotoxicity, 72 h; top asymptote may be below 50%); higher = less potent
# Method in brief: (§2)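 MPNST cell lines and primary human Schwann cells were incubated 72 h at 37 °C in 384-well plates holding five 10-fold compound dilutions. CellTox-Green was added before seeding at a final 1:1000 dilution and reported fluorescence from DNA released by disrupted cells. Signals were scaled to vehicle and positive-control wells, and cultures failing plate quality control were dropped. Drug sensitivity score and relative IC50 come from four-parameter logistic fits, with IC50 censored at the top concentration.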
# HSC1 [4] = assay: as above
# Method in brief: as §2
# S1507-2 [5] = assay: as above
# Method in brief: as §2
# HS-PSS [6] = assay: as above
# Method in brief: as §2
# HSC2 [7] = assay: as above
# Method in brief: as §2
# STS26T [8] = assay: as above
# Method in brief: as §2
# HS-Sch-2 = assay: relative IC50 (inflection point of fitted dose-response curve, CellTiter-Glo viability, 72 h; top asymptote may be below 50% inhibition); higher = less potent
# Method in brief: as §1
# YST-1 = assay: as above
# Method in brief: as §1
# HSC2 [9] = assay: as above
# Method in brief: as §1
# STS26T [10] = assay: as above
# Method in brief: as §1
# HSC1 [11] = assay: as above
# Method in brief: as §1
# S1507-2 [12] = assay: as above
# Method in brief: as §1
# S462 = assay: as above
# Method in brief: as §1
SMILES,relative IC50 (ST8814 [1]) [nM],relative IC50 (HS-PSS [2]) [nM],relative IC50 (ST8814 [3]) [nM],relative IC50 (HSC1 [4]) [nM],relative IC50 (S1507-2 [5]) [nM],relative IC50 (HS-PSS [6]) [nM],relative IC50 (HSC2 [7]) [nM],relative IC50 (STS26T [8]) [nM],relative IC50 (HS-Sch-2) [nM],relative IC50 (YST-1) [nM],relative IC50 (HSC2 [9]) [nM],relative IC50 (STS26T [10]) [nM],relative IC50 (HSC1 [11]) [nM],relative IC50 (S1507-2 [12]) [nM],relative IC50 (S462) [nM]
CN1CCN(c2ccc3nc(-c4c(N)c5c(F)cccc5[nH]c4=O)[nH]c3c2)CC1 [Dovitinib],> 10000,> 10000,> 10000,> 10000,> 10000,> 10000,> 10000,> 10000,,,,,,,
C=CCN(/C=C1/C(=O)O[C@H](COC)[C@@]2(C)C1=C(O)C(=O)C1=C2[C@H](OC(C)=O)C[C@]2(C)C(=O)CC[C@@H]12)CC=C [Sonolisib],,> 10000,> 10000,> 10000,> 10000,> 10000,> 10000,> 10000,> 10000,> 10000,,,,,
CN(C)CCOc1ccc(/C(=C(/CCCl)c2ccccc2)c2ccccc2)cc1 [Toremifene],4060,3430,2820,> 10000,3220,> 10000,> 10000,,3460,3740,2870,3440,,,
CN(C)c1nc(N(C)C)nc(N(C)C)n1 [Altretamine],> 10000,> 10000,> 10000,> 10000,,> 10000,> 10000,> 10000,> 10000,> 10000,> 10000,> 10000,> 10000,> 10000,> 10000
CO[C@@H](C(=O)N1Cc2[nH]nc(NC(=O)c3ccc(N4CCN(C)CC4)cc3)c2C1)c1ccccc1 [Danusertib],1200,1270,1170,2690,,2630,2390,744,529,57.8,968,1230,759,641,389
Cc1sc2c(c1C)C(c1ccc(Cl)cc1)=N[C@H](CC(=O)OC(C)(C)C)c1nnc(C)n1-2 [(-)JQ1],,,> 10000,> 10000,> 10000,,> 10000,> 10000,,,,,,,
Cc1cc(C(C)Nc2ccccc2)c2nc(N3CCOCC3)cc(=O)n2c1 (configuration not stated) [TGX-221],,> 10000,> 10000,> 10000,> 10000,> 10000,> 10000,,,3370,> 10000,875,,,
CCc1cnn2c(NCc3ccc[n+]([O-])c3)cc(N3CCCC[C@H]3CCO)nc12 [Dinaciclib],29.5,10.1,36.4,84.2,,7.72,43.9,8.71,8.55,7.48,13.6,12.7,21.6,25.9,6.5
CO[C@H](C(=O)[C@@H](O)[C@@H](C)O)[C@@H]1Cc2cc3cc(O[C@H]4C[C@@H](O[C@H]5C[C@@H](O)[C@H](O)[C@@H](C)O5)[C@@H](O)[C@@H](C)O4)c(C)c(O)c3c(O)c2C(=O)[C@H]1O[C@H]1C[C@@H](O[C@H]2C[C@@H](O[C@H]3C[C@](C)(O)[C@H](O)[C@@H](C)O3)[C@H](O)[C@@H](C)O2)[C@H](O)[C@@H](C)O1 [Plicamycin],51.4,1380,> 10000,255,,2410,247,33.3,865,564,52,47.5,45.6,102,85.2
Cc1c2oc3c(C)ccc(C(=O)N[C@@H]4C(=O)N[C@H](C(C)C)C(=O)N5CCC[C@H]5C(=O)N(C)CC(=O)N(C)[C@@H](C(C)C)C(=O)O[C@@H]4C)c3nc-2c(C(=O)N[C@@H]2C(=O)N[C@H](C(C)C)C(=O)N3CCC[C@H]3C(=O)N(C)CC(=O)N(C)[C@@H](C(C)C)C(=O)O[C@@H]2C)c(N)c1=O [Dactinomycin],3.46,5.05,49.1,12.4,,12,8.46,3.07,1.95,0.88,0.779,2.08,0.906,5.95,1.86
CCc1cncnc1N1CCN(Cc2nc3ccc(C(F)(F)F)cc3[nH]2)CC1,,2570,> 10000,> 10000,> 10000,> 10000,> 10000,> 10000,3740,,,,,,
COC1=CC(c2cc3ccccc3[nH]2)=N/C1=C\c1[nH]c(C)cc1C [Obatoclax],2880,1990,2870,2220,,> 10000,2100,2960,1590,1230,1360,2330,1370,1900,1960
CN1CC[C@H](c2c(O)cc(O)c3c(=O)cc(-c4ccccc4Cl)oc23)[C@H](O)C1 [Alvocidib],173,120,931,484,,194,304,614,195,185,243,185,219,299,170
CC/C(=C(\c1ccc(O)cc1)c1ccc(OCCN(C)C)cc1)c1ccccc1 [4-hydroxytamoxifen],2390,2320,3310,3000,,3410,2180,3560,2060,1390,2490,2540,2010,1470,1810
